Results published in patent US20220332774A1, “THERAPEUTIC MITOCHONDRIAL PEPTIDES” (priority 2019, published 2022).

Tests used:
3T3-L1 Mouse Adipocytes = assay: Free fatty acid levels in cultured 3T3-L1 mouse adipocytes (isoproterenol stimulated); assay type: cell-based; conditions: free fatty acid in medium; 5 μM peptide, 20-22 h pre-incubation then 3 h with 0.1 nM isoproterenol; isoproterenol alone = 100%
Summary of the method: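 3T3-L1 cells differentiated 12 days, insulin withdrawn, then peptides added on day 13 at 5 μM (0.1% DMSO) for 20-22 h at 37° C. After 3 h in assay buffer, medium free fatty acids read at 540 nm. Values expressed as percent of 0.1 nM isoproterenol-alone control.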

C2C12 Cells = assay: Glucose utilization in cultured C2C12 cells (myotubes); assay type: cell-based, mouse; conditions: glucose concentration in medium relative to untreated cells; 5 μM peptide, 22 h
Summary of the method: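 Differentiated mouse myotubes (5 days in 2% horse serum) serum-starved 5 h, then treated 22 h at 37 °C with peptide at 5 μM final (0.1% DMSO) in low-glucose (1 g/L) DMEM. Glucose remaining in medium measured colorimetrically at 570 nm. Expressed as percent of untreated control, from 2–3 experiments in triplicate.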

H4-IIE Cells = assay: Glucose production in cultured H4-IIE cells; assay type: cell-based, rat; conditions: glucose concentration in medium relative to untreated cells; 5 μM peptide, 24 h
Summary of the method: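 Rat H4-IIE hepatoma cells primed overnight in glucose-free DMEM with 2 mM pyruvate and 10 mM lactate, then treated 24 h at 37 °C with 5 μM peptide (0.1% DMSO; concentration assumes ~2000 Da). Medium glucose measured colorimetrically at 570 nm. Values are percent of untreated-cell glucose production; 0.5-1 nM insulin served as inhibitor reference.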

Substance	Percent of Isoproterenol Control Activity (3T3-L1 Mouse Adipocytes) [%]	Percent of Control Activity (C2C12 Cells) [%]	Percent of Control Activity (H4-IIE Cells) [%]
111 (MQRWFFMSLVVVVVRA) [compound 111]	89	101	91
112 (MQSGVLQSLAVTEIKYCNLL) [compound 112]	103	93	144
113 (MQTKSLQSPQ) [compound 113]	102	97	134
114 (MQWAILGLFVVG) [compound 114]	76	107	118
116 (MSGVRKEVSLL) [compound 116]	90	99	123
117 (MSKKIPATTMVLEWS) [compound 117]	98	91	121
118 (MSLSYLQDSTY) [compound 118]	98	83	126
119 (MSLTPHILPTMP) [compound 119]	97	109	122
120 (MSMPVLGWQWG) [compound 120]	95	98	118
121 (MSNMKTFSSA) [compound 121]	118	99	95
122 (MSNNMAFSTFKG) [compound 122]	113	103	97
123 (MSRNHSFCLNYMPIRFSLILFVVTH) [compound 123]	104	88	106
124 (MSSAWIIWFRLFSI) [compound 124]	113	96	97
125 (MSSDEFANTMPV) [compound 125]	115	109	96
126 (MSTHLPNYHTNLSYR) [compound 126]	108	110	87
127 (MSTINQQVIITLTVNPTQACS) [compound 127]	104	109	88
128 (MSWSNIEVVNPIVDMDS) [compound 128]	116	103	93
129 (MSYRAHTPKMLVMPFPY) [compound 129]	115	110	90
130 (MTAPVKLQGVWM) [compound 130]	110	103	97
131 (MTELLTPNWTNLSPY) [compound 131]	110	107	97
133 (MTLGHNMIYLHTS) [compound 133]	107	100	91
134 (MTNIFGVWAR) [compound 134]	111	101	92
135 (MTNPENQNERKSVRFIHCPHNP) [compound 135]	127	109	93
136 (MTNTLNSIHPPLP) [compound 136]	124	99	94
137 (MTSLHNSFYSKDTSLRTPLMTP) [compound 137]	115	116	96
138 (MTSPKIQNNNTPDHTANNQY) [compound 138]	111	115	92
139 (MTWPTEQVTLGMTAQSYS) [compound 139]	91	100	97
